US10752640B2, “Compounds active towards bromodomains” (NUEVOLUTION A/S, priority 2014, dated 2020)

The molecules below were run against BRD4 protein (Homo sapiens, UniProt O60885) (assay: FRET assay, half maximal inhibitory concentration (IC50)). Details: BRD4 protein 50 nM, Biotin-H4KAc4 peptide 12.5 nM; List of Classification.
Format: binding
Method: The compounds were biologically evaluated by determining the half maximal inhibitory concentration (IC50) by FRET assay. The IC50 is a measure of the effectiveness of a substance in inhibiting a specific biological or biochemical function.
For IC50 determinations, dose-response curves were generated, using a top concentration of 50 μM compound in 12.5% DMSO, followed by 10-fold dilutions in 12.5% DMSO. The composition of the reaction buffer was 50 mM HEPES, pH 7.5; 100 mM NaCl, 0.05% CHAPS.
The reaction was run in a final volume of 25 μl. The BRD4 protein (16.5 μl) was added to wells of 384w white Optiplates (Perkin Elmer) (50 nM final concentration) and 1 μl of compound dilution of DMSO control. Incubation time was 30 minutes at room temperature. In the next step, 2.5 μl Biotin-H4KAc4 peptide (Millipore 13-379) was added to the wells (final concentration was 12.5 nM), and the plates were incubated for 30 minutes at room temperature. Detection was performed by addition of 5 μl of a mix of mAb GST-XL665 (Cisbio 61GSTXLB) (10 nM final concentration) and Streptavidin Cryptate (Cisbio 610SAKLB) (2.4 nM final conc.) in reaction buffer with 0.4M KF and 0.05% BSA). The plates were incubated for one hour prior to reading on an Envision reader (Perkin Elmer)
Data was analyzed using GraphPad Prism, and IC50 data was obtained using non-linear regression curve fit using log(inhibitor) vs response (variable slope). All compounds were considered active although classified (according to the half maximal inhibitory concentration (IC50) by FRET assay) as follows: […]

Row | IC50 | SMILES
1 | 500 to 1000 nM | Cc1cc(O)nc2ccc(NC(=O)c3nc(C#N)ccc3N3CCCC3)cc12 [Compound-35, 6-Cyano-N-(2-hydroxy-4-methylquinolin-6-yl)-3-(pyrrolidin-1-yl)picolinamide]
2 | 1000 to 10000 nM | Cc1cc(O)nc2ccc(NC(=O)c3nc(CN)ccc3N3CCCC3)cc12 [Compound-36, 6-(aminomethyl)-N-(2-hydroxy-4-methylqunolin-6-yl)-3-(pyrrolidin-1-yl)picolinamide]
3 | 1000 to 10000 nM | Cc1cc(O)nc2ccc(NC(=O)c3nc(CN(C)C)ccc3N3CCCC3)cc12 [Compound-37]
4 | < 200 nM | CC(=O)c1ccc(N2CCCC2)c(C(=O)Nc2ccc3nc(O)cc(C)c3c2)n1 [Compound-38, 6-acetyl-N-(2-hydroxy-4-methylquinolin-6-yl)-3(pyrrolidin-1-yl)picolinamide]
5 | 500 to 1000 nM | Cc1cc(O)nc2ccc(NC(=O)c3nc(C(C)O)ccc3N3CCCC3)cc12 (stereo not drawn) [Compound-39]
6 | 200 to 500 nM | Cc1cc(O)nc2ccc(NC(=O)c3nc(C(N)=O)ccc3N3CCCC3)cc12 [Compound-40, N2-(2-hydroxy-4-methylquinolin-6-yl)-3-(pyrrolidin-1-yl)pyridine-2,6-dicarboxamide]
7 | < 200 nM | Cc1cc(O)nc2ccc(NC(=O)c3cc(C#N)ncc3N3CCCC3)cc12 [Compound-41, 2-Cyano-N-(2-hydroxy-4-methylquinolin-6-yl)-5-(pyrrolidin-1-yl) isonicotinamide]
8 | < 200 nM | CC(=O)c1cc(C(=O)Nc2ccc3nc(O)cc(C)c3c2)c(N2CCCC2)cn1 [Compound-42, 2-acetyl-N-(2-hydroxy-4-methylquinolin-6-yl)-5 (pyrrolidin-1-yl)isonicotinamide]
9 | < 200 nM | Cc1cc(O)nc2ccc(NC(=O)c3cc(C(C)O)ccc3N3CCCC3)cc12 (stereo not drawn) [Compound-46, N-(2-hydroxy-4-methylquinolin-6-yl)-5-(1-hydroxyethyl)-2-(pyrrolidin-1-yl) benzamide]
10 | < 200 nM | COC(C)c1ccc(N2CCCC2)c(C(=O)Nc2ccc3nc(O)cc(C)c3c2)c1 (stereo not drawn) [Compound-47, N-(2-hydroxy-4-methylquinolin-6-yl)-5-(1-methoxyethyl)-2-(pyrrolidin-1-yl) benzamide]
11 | 200 to 500 nM | COCc1ccc(N2CCCC2CN(C)C)c(C(=O)Nc2ccc3nc(O)cc(C)c3c2)c1 (stereo not drawn) [Compound-48, 2-(2-((dimethylamino)methyl)pyrrolidin-1-yl)-N-(2-hydroxy-4-methylquinolin-6-yl)-5-(methoxymethyl)benzamide]
12 | < 200 nM | Cc1cc(O)nc2ccc(NC(=O)c3cc(COC(C)C)ccc3N3CCCC3)cc12 [Compound-50, N-(2-hydroxy-4-methylquinolin-6-yl)-5-(isopropoxymethyl)-2-(pyrrolidin-1-yl) benzamide]
13 | < 200 nM | Cc1cc(O)nc2ccc(NC(=O)c3cc(OC(F)(F)F)ccc3N3CCCC3CN(C)C)cc12 (stereo not drawn) [Compound-51, 2-(2-((dimethylamino)methyl)pyrrolidin-1-yl)-N-(2-hydroxy-4-methylquinolin-6-yl)-5-(trifluoromethoxy) benzamide]
14 | 500 to 1000 nM | Cc1cc(O)nc2ccc(NC(=O)c3cc(N)ccc3N3CCOCC3)cc12 [Compound-54, 5-amino-N-(2-hydroxy-4-methyl-6-quinolyl)-2-morpholino-benzamide]
15 | 200 to 500 nM | Cc1cc(O)nc2ccc(NC(=O)c3cc(NCC(N)=O)ccc3N3CCOCC3)cc12 [Compound-55, 5-[(2-amino-2-oxo-ethyl)amino]-N-(2-hydroxy-4-methyl-6-quinolyl)-2-morpholino-benzamide]
16 | < 200 nM | Cc1cc(O)nc2ccc(NC(=O)c3cc(S(=O)(=O)N4CCOCC4)ccc3N3CCOCC3)cc12 [Compound-68, N-(2-hydroxy-4-methyl-6-quinolyl)-2-morpholino-5-morpholinosulfonyl-benzamide]
17 | > 10000 nM | COc1ccccc1C(=O)Nc1ccc2nc(O)cc(C)c2c1 [Compound-69, N-(2-hydroxy-4-methyl-6-quinolyl)-2-methoxy-benzamide]
18 | < 200 nM | Cc1cc(O)nc2ccc(NC(=O)c3cc(S(N)(=O)=O)ccc3N3CCOCC3)cc12 [Compound-70, N-(2-hydroxy-4-methyl-6-quinolyl)-2-morpholino-5-sulfamoyl-benzamide]
19 | < 200 nM | Cc1cc(O)nc2ccc(NC(=O)c3cc(S(=O)(=O)N(C)C)ccc3N3CCCC3)cc12 [Compound-72, 5-(dimethylsulfamoyl)-N-(2-hydroxy-4-methyl-6-quinolyl)-2-pyrrolidin-1-yl-benzamide]
20 | < 200 nM | Cc1cc(O)nc2ccc(NC(=O)c3cc(S(=O)(=O)N(C)C)ccc3N3CCOCC3)cc12 [Compound-73, 5-(dimethylsulfamoyl)-N-(2-hydroxy-4-methyl-6-quinolyl)-2-morpholino-benzamide]
21 | < 200 nM | Cc1cc(O)nc2ccc(NC(=O)c3cc(S(=O)(=O)N4CCOCC4)ccc3N3CCCC3)cc12 [Compound-74, N-(2-hydroxy-4-methyl-6-quinolyl)-5-morpholinosulfonyl-2-pyrrolidin-1-yl-benzamide]
22 | 1000 to 10000 nM | Cc1cc(O)nc2ccc(NS(=O)(=O)c3cc([N+](=O)[O-])ccc3N3CCOCC3)cc12 [Compound-76, N-(2-hydroxy-4-methyl-6-quinolyl)-2-morpholino-5-nitro-benzenesulfonamide]
23 | > 10000 nM | Cc1cc(O)nc2ccc(NS(=O)(=O)c3cc(N)ccc3N3CCOCC3)cc12 [Compound-77, 5-amino-N-(2-hydroxy-4-methyl-6-quinolyl)-2-morpholino-benzenesulfonamide]
24 | 1000 to 10000 nM | CN(C)S(=O)(=O)c1ccc(N2CCOCC2)c(C(=O)Nc2ccc3[nH]c(=O)cc(C(F)(F)F)c3c2)c1 [Compound-79, 5-(dimethylsulfamoyl)-2-morpholino-N-[2-oxo-4-(trifluoromethyl)-1H-quinolin-6-yl]benzamide]
25 | > 10000 nM | Cc1cc(O)nc2ccc(NS(=O)(=O)c3cc(S(N)(=O)=O)ccc3N3CCOCC3)cc12 [Compound-80, N3-(2-hydroxy-4-methyl-6-quinolyl)-4-morpholino-benzene-1,3-disulfonamide]
26 | < 200 nM | Cc1cc(O)nc2ccc(NC(=O)c3cc([N+](=O)[O-])ccc3N3CCCC3)cc12 [Compound-82, N-(2-hydroxy-4-methyl-6-quinolyl)-5-nitro-2-pyrrolidin-1-yl-benzamide]
27 | < 200 nM | Cc1cc(O)nc2ccc(NC(=O)c3cc4c(ccn4CC4NCCO4)cc3N3CCCC3)cc12 (stereo not drawn) [Compound-84, N-(2-hydroxy-4-methyl-6-quinolyl)-1-(oxazolidin-2-ylmethyl)-5-pyrrolidin-1-yl-indole-6-carboxamide]
28 | < 200 nM | Cc1cc(O)nc2ccc(NC(=O)c3cc4[nH]cc(CN(C)C)c4cc3N3CCCC3)cc12 [Compound-85, 3-(dimethylaminomethyl)-N-(2-hydroxy-4-methyl-6-quinolyl)-5-pyrrolidin-1-yl-1H-indole-6-carboxamide]
29 | < 200 nM | Cc1cc(O)nc2ccc(NC(=O)c3cc4c(ccn4CC(N)=O)cc3N3CCCC3)cc12 [Compound-86, 1-(2-amino-2-oxo-ethyl)-N-(2-hydroxy-4-methyl-6-quinolyl)-5-pyrrolidin-1-yl-indole-6-carboxamide]
30 | < 200 nM | Cc1cc(O)nc2ccc(NC(=O)c3cc(CN4CCOCC4)cnc3N3CCCC3)cc12 [Compound-87, N-(2-hydroxy-4-methyl-6-quinolyl)-5-(morpholinomethyl)-2-pyrrolidin-1-yl-pyridine-3-carboxamide]
